Experimental findings from ChEMBL document CHEMBL5291721, “A preclinical secondary pharmacology resource illuminates target-adverse drug reaction associations of marketed drugs” (Nat Commun, 2023) are described below.

Targets include Histamine H1 receptor (Homo sapiens, UniProt P35367); Histamine H3 receptor (Homo sapiens, UniProt Q9Y5N1); D(3) dopamine receptor (Homo sapiens, UniProt P35462); Mu-type opioid receptor (Homo sapiens, UniProt P35372).
A further experiment has as its target T1, Glucocorticoid receptor (Homo sapiens, UniProt P04150).
T1 sequence (P04150 whole entry): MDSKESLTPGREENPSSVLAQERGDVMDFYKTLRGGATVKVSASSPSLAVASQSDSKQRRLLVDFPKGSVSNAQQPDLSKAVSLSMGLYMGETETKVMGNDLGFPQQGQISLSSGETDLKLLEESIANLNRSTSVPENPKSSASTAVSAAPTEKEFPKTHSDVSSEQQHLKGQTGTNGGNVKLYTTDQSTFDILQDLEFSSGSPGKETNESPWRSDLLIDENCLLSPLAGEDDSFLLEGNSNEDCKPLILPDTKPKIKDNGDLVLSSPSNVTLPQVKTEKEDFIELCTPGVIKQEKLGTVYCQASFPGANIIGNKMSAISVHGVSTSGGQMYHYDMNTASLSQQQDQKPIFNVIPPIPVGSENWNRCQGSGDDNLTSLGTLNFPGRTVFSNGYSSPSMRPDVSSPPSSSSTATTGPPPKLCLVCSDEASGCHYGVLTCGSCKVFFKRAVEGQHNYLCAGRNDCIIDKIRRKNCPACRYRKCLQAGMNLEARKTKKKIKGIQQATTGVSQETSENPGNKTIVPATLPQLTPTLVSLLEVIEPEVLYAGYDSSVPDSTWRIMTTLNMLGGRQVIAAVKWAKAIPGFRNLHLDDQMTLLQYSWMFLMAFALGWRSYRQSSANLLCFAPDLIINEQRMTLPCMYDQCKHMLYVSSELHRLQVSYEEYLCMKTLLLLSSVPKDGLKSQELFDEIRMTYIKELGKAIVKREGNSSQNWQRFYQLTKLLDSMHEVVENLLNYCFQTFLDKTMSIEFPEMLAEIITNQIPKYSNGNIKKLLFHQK
Format: functional.

Experiment [1] deals with Sodium-dependent serotonin transporter (Homo sapiens, UniProt P31645).
Experiment [2] has as its target T2, Muscarinic acetylcholine receptor M2 (Homo sapiens, UniProt P08172).
T2 sequence (P08172 whole entry): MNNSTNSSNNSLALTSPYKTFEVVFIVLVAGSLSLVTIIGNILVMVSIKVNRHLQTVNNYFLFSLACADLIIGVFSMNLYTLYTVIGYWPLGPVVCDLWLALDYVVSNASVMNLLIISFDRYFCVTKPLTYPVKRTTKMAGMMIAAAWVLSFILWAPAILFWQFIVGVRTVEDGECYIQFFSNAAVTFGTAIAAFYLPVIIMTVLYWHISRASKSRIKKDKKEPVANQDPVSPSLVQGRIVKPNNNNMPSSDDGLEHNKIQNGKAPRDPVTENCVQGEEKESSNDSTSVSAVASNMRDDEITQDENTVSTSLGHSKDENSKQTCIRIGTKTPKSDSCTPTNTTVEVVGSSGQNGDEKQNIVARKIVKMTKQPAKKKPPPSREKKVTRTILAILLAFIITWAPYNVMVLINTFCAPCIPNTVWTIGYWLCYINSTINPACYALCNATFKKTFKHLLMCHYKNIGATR

Experiment [3] deals with Beta-2 adrenergic receptor (Homo sapiens, UniProt P07550). The class given is functional, cell-based.
Experiment [4] concerns the target T3, Thromboxane A2 receptor (Homo sapiens, UniProt P21731).
T3 sequence (P21731 whole entry): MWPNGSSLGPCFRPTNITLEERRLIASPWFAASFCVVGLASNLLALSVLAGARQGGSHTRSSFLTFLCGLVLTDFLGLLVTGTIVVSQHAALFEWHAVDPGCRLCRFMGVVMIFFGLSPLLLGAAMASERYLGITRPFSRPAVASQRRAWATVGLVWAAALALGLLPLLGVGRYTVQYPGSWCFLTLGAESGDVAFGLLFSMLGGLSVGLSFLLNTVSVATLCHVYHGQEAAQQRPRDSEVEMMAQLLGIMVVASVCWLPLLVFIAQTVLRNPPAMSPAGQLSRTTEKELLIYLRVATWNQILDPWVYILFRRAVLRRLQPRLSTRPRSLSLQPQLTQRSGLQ
Format: functional, cell-based.

Experiment [5] deals with T3, Thromboxane A2 receptor. Format: functional, cell-based. This is another data set of the same source.
Experiment [6] deals with Prostaglandin G/H synthase 1 (Homo sapiens, UniProt P23219). The class given is functional.
The target of experiment [7] is Muscarinic acetylcholine receptor M3 (Homo sapiens, UniProt P20309).
The target of experiment [8] is Sodium-dependent dopamine transporter (Homo sapiens, UniProt Q01959).
Experiment [9] deals with Epidermal growth factor receptor (Homo sapiens, UniProt P00533). The class given is functional.
The next experiment deals with Acetylcholinesterase (Homo sapiens, UniProt P22303). Format: functional.

Some results are limits rather than exact numbers.
Also: assay procedure not described here.

Sequence of Sodium-dependent serotonin transporter (P31645 whole entry): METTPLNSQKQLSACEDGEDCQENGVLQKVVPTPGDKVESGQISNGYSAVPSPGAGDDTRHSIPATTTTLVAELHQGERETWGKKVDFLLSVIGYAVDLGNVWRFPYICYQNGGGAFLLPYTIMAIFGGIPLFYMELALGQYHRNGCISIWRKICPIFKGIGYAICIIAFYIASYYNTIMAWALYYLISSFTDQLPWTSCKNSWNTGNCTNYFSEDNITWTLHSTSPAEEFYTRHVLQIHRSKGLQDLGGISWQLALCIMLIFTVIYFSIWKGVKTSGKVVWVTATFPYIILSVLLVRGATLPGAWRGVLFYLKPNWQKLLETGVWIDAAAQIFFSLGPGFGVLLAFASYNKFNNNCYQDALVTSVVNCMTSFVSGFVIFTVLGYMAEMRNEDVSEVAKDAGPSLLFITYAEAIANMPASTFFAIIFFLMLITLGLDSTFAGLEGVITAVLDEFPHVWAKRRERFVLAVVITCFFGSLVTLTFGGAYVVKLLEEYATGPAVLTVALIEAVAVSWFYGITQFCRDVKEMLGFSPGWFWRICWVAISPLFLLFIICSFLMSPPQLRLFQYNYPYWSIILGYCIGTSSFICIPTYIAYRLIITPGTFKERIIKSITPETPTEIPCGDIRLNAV
Sequence of Histamine H3 receptor (Q9Y5N1 whole entry): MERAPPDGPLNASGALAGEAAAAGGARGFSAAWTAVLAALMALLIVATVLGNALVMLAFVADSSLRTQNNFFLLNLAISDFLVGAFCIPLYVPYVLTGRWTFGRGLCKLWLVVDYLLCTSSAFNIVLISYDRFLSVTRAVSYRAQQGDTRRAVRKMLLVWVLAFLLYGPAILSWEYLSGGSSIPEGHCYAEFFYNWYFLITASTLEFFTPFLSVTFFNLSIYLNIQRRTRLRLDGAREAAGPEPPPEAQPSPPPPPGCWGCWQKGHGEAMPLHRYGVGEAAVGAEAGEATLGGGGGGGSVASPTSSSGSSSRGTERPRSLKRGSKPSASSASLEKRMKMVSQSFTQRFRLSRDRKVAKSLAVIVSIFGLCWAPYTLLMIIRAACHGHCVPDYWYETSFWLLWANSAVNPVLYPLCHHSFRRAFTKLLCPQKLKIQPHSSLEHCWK
Sequence of Prostaglandin G/H synthase 1 (P23219 whole entry): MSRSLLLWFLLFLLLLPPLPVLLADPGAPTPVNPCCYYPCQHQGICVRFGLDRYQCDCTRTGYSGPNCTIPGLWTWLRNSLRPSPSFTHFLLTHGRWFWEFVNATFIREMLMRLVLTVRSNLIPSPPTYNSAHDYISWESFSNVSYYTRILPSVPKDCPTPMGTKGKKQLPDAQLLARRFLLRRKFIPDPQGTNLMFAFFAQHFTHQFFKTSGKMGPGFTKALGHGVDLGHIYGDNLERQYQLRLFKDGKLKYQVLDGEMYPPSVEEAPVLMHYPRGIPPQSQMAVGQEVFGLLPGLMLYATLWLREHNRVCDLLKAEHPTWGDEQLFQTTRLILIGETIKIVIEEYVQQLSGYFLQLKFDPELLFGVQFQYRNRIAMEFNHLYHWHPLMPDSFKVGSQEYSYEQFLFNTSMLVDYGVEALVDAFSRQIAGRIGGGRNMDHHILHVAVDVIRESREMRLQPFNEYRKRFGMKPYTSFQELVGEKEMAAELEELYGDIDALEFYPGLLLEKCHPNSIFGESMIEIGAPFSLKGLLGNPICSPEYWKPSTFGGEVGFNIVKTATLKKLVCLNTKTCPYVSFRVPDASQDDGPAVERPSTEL
Sequence of Mu-type opioid receptor (P35372 whole entry): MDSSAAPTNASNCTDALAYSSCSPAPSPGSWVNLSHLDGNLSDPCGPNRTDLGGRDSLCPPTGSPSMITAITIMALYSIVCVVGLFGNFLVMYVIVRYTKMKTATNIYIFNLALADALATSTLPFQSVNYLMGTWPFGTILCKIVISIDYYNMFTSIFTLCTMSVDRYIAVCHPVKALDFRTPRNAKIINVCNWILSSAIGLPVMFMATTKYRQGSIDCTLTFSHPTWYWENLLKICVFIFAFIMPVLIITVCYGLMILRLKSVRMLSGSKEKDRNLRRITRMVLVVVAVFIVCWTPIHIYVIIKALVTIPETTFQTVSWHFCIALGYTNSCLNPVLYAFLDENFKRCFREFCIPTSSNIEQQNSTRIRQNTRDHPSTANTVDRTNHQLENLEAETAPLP
Sequence of Acetylcholinesterase (P22303 whole entry): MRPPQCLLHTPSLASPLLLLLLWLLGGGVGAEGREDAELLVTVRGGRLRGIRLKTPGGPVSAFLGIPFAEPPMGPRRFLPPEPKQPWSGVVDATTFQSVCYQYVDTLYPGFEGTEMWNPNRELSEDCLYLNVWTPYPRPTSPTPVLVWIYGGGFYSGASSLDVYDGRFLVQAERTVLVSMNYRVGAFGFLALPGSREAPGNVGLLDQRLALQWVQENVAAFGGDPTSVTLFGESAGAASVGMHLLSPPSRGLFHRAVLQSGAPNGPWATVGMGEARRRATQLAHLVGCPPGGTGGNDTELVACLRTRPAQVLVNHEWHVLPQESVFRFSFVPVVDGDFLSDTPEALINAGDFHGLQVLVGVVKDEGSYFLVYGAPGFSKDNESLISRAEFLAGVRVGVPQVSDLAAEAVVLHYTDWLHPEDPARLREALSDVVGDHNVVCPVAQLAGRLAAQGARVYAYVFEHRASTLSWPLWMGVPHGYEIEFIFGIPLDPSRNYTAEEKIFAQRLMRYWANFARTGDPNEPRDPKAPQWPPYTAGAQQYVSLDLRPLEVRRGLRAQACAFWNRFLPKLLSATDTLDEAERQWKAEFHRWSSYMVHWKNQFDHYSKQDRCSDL
Sequence of D(3) dopamine receptor (P35462 whole entry): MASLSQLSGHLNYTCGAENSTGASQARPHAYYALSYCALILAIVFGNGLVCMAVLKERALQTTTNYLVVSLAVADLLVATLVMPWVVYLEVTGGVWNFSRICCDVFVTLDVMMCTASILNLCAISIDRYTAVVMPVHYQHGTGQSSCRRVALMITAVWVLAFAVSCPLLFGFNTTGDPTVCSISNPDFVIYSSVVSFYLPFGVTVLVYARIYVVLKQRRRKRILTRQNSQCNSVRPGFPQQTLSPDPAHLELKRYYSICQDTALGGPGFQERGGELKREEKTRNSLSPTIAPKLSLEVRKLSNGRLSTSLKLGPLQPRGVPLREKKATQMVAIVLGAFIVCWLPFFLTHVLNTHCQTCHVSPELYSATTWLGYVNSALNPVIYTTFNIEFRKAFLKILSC
Sequence of Muscarinic acetylcholine receptor M3 (P20309 whole entry): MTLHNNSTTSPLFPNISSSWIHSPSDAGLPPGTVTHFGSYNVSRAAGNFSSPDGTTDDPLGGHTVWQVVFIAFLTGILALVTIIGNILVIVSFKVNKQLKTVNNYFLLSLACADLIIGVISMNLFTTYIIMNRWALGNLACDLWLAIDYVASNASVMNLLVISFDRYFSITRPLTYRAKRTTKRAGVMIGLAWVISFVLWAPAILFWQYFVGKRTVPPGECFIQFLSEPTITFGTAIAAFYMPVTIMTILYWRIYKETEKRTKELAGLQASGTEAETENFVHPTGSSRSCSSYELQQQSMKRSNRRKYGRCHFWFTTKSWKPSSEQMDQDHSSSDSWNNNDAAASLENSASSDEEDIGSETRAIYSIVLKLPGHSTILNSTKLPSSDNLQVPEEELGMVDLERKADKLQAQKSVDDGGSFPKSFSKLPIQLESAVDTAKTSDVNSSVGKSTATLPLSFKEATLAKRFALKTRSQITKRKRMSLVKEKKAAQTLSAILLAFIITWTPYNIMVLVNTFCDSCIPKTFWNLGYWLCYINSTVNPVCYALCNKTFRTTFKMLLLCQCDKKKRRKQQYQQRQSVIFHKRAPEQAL
Sequence of Epidermal growth factor receptor (P00533 whole entry): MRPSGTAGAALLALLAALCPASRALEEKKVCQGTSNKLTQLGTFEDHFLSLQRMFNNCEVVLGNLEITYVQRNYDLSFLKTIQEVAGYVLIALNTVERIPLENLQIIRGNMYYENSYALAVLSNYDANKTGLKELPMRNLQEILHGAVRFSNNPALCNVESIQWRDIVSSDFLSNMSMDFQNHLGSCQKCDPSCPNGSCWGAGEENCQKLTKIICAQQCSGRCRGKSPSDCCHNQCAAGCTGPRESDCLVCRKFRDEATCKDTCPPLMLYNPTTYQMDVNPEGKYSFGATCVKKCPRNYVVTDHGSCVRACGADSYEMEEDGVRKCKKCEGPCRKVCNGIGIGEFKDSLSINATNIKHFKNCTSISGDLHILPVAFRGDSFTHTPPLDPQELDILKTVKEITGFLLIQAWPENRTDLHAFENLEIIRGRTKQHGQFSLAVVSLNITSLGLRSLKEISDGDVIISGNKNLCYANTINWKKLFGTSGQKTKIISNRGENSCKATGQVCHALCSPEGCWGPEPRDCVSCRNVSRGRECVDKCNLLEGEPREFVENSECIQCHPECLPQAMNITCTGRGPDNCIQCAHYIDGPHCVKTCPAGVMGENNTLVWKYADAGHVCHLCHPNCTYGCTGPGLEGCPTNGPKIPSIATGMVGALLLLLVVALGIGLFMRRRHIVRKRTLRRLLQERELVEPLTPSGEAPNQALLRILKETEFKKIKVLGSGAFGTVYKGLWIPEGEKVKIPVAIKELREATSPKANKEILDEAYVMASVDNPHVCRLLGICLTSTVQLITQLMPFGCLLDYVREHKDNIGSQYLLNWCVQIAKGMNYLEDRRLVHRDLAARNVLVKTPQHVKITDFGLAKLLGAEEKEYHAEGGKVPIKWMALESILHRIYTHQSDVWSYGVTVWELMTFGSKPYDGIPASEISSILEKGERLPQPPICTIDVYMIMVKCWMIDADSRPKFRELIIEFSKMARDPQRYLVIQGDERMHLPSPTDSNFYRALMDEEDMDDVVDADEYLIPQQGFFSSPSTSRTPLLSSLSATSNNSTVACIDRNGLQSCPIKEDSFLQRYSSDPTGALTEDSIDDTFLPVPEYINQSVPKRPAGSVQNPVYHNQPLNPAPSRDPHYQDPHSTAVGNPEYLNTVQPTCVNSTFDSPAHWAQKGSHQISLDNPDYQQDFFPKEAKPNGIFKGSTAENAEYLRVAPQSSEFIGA

In the case of `C[C@H](Nc1ncnc2[nH]cnc12)c1cc2cccc(Cl)c2c(=O)n1-c1ccccc1` [DUVELISIB], the AC50 (on Histamine H1 receptor; on Glucocorticoid receptor; in experiment [1]; at Histamine H3 receptor; in experiment [2]; on D(3) dopamine receptor) was more than 30 µM each time. The AC50 (as a rule, the concentration giving half of the maximal activity seen) in experiment [3] was more than 30 µM; at Thromboxane A2 receptor [4] it was more than 30 µM; on Thromboxane A2 receptor [5] it was 15.1 µM; in [6], more than 30 µM; in experiment [7] it was more than 30 µM; at Mu-type opioid receptor, more than 30 µM. The AC50 (in experiment [8]; in [9]; on Acetylcholinesterase) was more than 30 µM throughout.
